Columns and labels:
IRAK1 = IRAK1 (Homo sapiens, UniProt P51617); assay: IRAK1 ADP-Glo kinase assay; assay type: biochemical; conditions: read-out: IRAK1 ADP-Glo Kinase, 8 pt EC50
[1] = test system: TLR2-induced TNF-α production in human primary dendritic cells (DC); assay: TLR2-induced TNF-α in human primary dendritic cells; assay type: cell-based
[2] = test system: TLR4-dependent cytokine production in mouse macrophages; assay: TLR4-dependent cytokine production in mouse macrophages; assay type: cell-based
[3] = test system: TLR4-induced TNF-α production by human THP-1 cells; assay: TLR4-induced TNF-α in THP-1 cells; assay type: cell-based
Method: THP-1 cells (100K in 100 μL/well) were primed with 25 ng/mL IFN-γ for 18 hours at 37° C., 5% CO2. Compound was serially diluted in DMSO from 2.5 mM in 4-fold dilutions, and then diluted 1:125 in RPMI 1640 complete media with 10% FBS. 100 μL/well 2× compound was mixed with the 100 μL/well IFN-7 primed THP-1 in 96 well flat-bottom white tissue culture plates. The cells were pre-incubated with compound for 1 hour at 37° C., 5% CO2 and before addition of 10 μL/well 21×LPS to give a final concentration of […] for LPS. The cells were stimulated with LPS for 18 hours at 37° C., 5% CO2. After centrifugation, 100 μL/well supernatant was extracted by using a multichannel pipette. IL-23p19 or TNF-α protein in the supernatant were measured by sandwich ELISA. The remaining IFN-7 primed THP-1 cell pellets were used to perform cell viability assays to determine compound cell toxicity. The plates were read with a luminometer, and the chemiluminescence values were entered into Athena (Rigel) for curve fitting, EC50 calculation, and database storage.

[4] = test system: TLR4-induced IL-23 production in human primary dendritic cells (DC); assay: IL23-p19 ELISA, dendritic cells (DC), LPS; assay type: cell-based; conditions: Dendritic cell; dendritic cells from human PBMC, IFNγ primed, LPS 1 μg/ml, 18 h; read-out: IL23-p19 ELISA, Dendritic, LPS, 10 pt EC50
Method: Human PBMC cells (400 million) obtained from the vendor were transferred into a T-175 flask containing 15 ml RPMI media (10% FBS) and incubate for 2 hours at 37° C. After 2 hours, the media including floating cells was aspirated out carefully and 12 ml of fresh RPMI media (10% FBS) containing GMCSF (100 ng/ml) and IL4 (20 ng/ml) was added, and the flask was kept in a 37° C. incubator for 7 days.
After 3 days, fresh GMCSF (100 ng/ml) and IL4 (20 ng/ml) were added to the flask and the incubation continued. After 7 days, the fully differentiated cells were harvested by spinning down (1200 rpm/5 min) and aspirating the media. […]
155 μl of the supernatant was harvested from each well carefully (without the tip touching the bottom of the well) and to the remaining 50 μl/well of the cell culture plate was added 50 μl of Cell Titer Glo reagent. The mixture was incubated for 1-2 minutes on a shaker and the plate was read for luminescence intensity to determine the compound cytotoxicity. […]
After 45 minutes, the plates were washed with TBST 4× and 100 ul/well Super Signal ELISA Pico Chemiluminescent Substrate from Pierce (3.5 ml A+3.5 ml B+3.5 ml MQ water) was added. The plates were shaken for 1-2 minutes then read on a plate reader. […]

[5] = test system: IL-10-induced production of the cytokine IL-6 in primary human endothelial cells; assay: IL-6 production in primary human endothelial cells; assay type: cell-based

Chain of IRAK1 (P51617 whole entry): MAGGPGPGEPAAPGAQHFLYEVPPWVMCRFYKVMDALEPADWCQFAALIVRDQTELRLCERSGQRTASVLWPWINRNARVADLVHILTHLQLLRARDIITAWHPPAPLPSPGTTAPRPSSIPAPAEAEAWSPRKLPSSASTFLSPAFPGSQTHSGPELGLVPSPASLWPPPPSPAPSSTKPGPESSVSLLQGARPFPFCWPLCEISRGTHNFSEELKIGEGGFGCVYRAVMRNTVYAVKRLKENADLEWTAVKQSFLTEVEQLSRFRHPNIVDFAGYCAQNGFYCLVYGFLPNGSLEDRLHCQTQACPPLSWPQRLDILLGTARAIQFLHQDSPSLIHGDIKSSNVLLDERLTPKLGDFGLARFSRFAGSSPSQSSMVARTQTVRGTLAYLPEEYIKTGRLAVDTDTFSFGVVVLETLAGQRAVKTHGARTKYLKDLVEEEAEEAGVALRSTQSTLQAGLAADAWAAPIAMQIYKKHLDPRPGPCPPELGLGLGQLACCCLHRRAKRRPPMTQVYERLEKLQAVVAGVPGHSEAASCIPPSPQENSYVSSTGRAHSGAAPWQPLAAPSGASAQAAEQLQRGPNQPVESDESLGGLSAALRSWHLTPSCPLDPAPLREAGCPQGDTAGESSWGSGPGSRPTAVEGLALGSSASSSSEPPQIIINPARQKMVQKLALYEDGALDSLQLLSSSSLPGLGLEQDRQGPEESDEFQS

`CCO[C@H]1CC[C@H](n2cc(NC(=O)c3csc(-c4cn[nH]c4)n3)c(-c3ncccn3)n2)CC1` [Compound I-1, N-(1-((1r,4r)-4-ethoxycyclohexyl)-3-(pyrimidin-2-yl)-1H-pyrazol-4-yl)-2-(1H-pyrazol-4-yl)thiazole-4-carboxamide] was tested, and the EC50 (IRAK1) was 0.0081 µM, the “TLR2-induced TNF-α production in human primary dendritic cells (DC)” value [1] was “blocks” and the “TLR4-dependent cytokine production in mouse macrophages” value [2] was “potent inhibitor”. The “TLR4-induced TNF-α production by human THP-1 cells” value [3] was “inhibits”, the EC50 [4] was 0.18 µM and the “IL-10-induced production of the cytokine IL-6 in primary human endothelial cells” value [5] was “potently inhibits”.

Source: patent publication US12384775B2, “Pyrimid-2-yl-pyrazole compounds as IRAK inhibitors” (Rigel Pharmaceuticals, Inc., priority 2022, dated 2025)
